Key:
TAK1-TAB1 = TAK1-TAB1 (Homo sapiens (Human), UniProt O43318); assay: TAK1-TAB1 competitive binding assay (LanthaScreen), without pre-incubation; conditions: 10 nM TAK1-TAB1, 100 nM kinase tracer-236, read-out: TAK1-TAB1 Inhibition IC50
Excerpt: TAK1-TAB1 Binding Inhibitory Potency: The ability of candidate compounds to interact with TAK1-TAB1 is quantitated by a competitive binding assay using the LanthaScreen technology developed by Life Technologies. This assay is based on the binding of a proprietary, Alexa Fluor® 647-labeled, ATP-competitive kinase inhibitor (kinase tracer-236) to the TAK1-TAB1 construct in presence of a europium-conjugated antibody, resulting in a FRET (fluorescence resonance energy transfer) signal. Displacement of the kinase tracer by compound results in a lower emission ratio upon excitation of the europium chelate. Candidate compounds are designed as potential irreversible inhibitors of TAK1-TAB1, capable of ligating to an active site cysteine residue. The time dependent nature of irreversible inhibition is investigated by performing the binding assay with and without a pre-incubation of compound and TAK1-TAB1.
The inhibitory potency of candidate compounds is measured in 20 mM HEPES pH 7.5, 10 mM MgCl2, 0.01% BSA, 0.0005% Tween-20, and 2% DMSO in the presence of 10 nM TAK1-TAB1, 2 nM Eu-anti-his antibody, and 100 nM kinase tracer-236 using a 384-well plate format. Background signal is defined in the absence of TAK1-TAB1 and uninhibited signal is defined in the presence of vehicle (2% DMSO) alone. Compounds were evaluated in an 11 point dose-response ranging from 20 μM to 0.34 nM. The binding assays are performed under two conditions to evaluate time dependence of inhibition. For the pre-incubation assay, TAK1-TAB1 and Eu-anti-his antibody are preincubated with compound or vehicle for two hours prior to the addition of kinase tracer. The non-preincubated assay is run in which TAK1-TAB1 and Eu-anti-his antibody are added to a mixture of compound and kinase tracer. IC50 values of compounds are determined using a 4 parameter logistical fit of emission ratio as a function of the concentration of compound.
Compounds were tested in accordance with the above described assay, without pre-incubation, yielding the values described below: […]

A549 cells = assay: IL-1β stimulated IL-6 Production in A549 cells; assay type: cell-based; conditions: Homo sapiens, 1 ng/ml rhIL1β, 18 hrs; for activity at 5 µM: 5 μM compound, read-out: IL-6 Production % Control 5 μM; for activity at 50 µM: 50 μM compound, read-out: IL-6 Production % Control 50 μM; for IC50: read-out: IL-6 Production IC
Experimental: IL-1β stimulated IL-6 Production in A549 cells: The cellular efficacy of compound candidates is determined using the human lung epithelial cell line A549 (ATCC #CCL-185), based upon the methods of Wheeler et al. (2004) J. Nutrition 134, 1039-1044, and Eda et al. (2011) Cell Biol. Int. 35, 355-358. A549 cells produce a number of cytokines (IL6, IL8 and TNFα) in response to stimulation with IL1β. To induce the production of inflammatory mediators, A549 cells are plated at a final concentration of 3×10^5 cells/well of a 96 well flat bottom plate in F12-K medium supplemented with 10% fetal bovine serum, 100 units/ml penicillin and 100 μg/ml streptomycin (Gibco BRL Life Technologies). Cells are treated with or without inhibitors for 3 hrs then stimulated with 1 ng/ml rhIL1β (R & D Systems) for an additional 18 hrs at 37° C. with 5% CO2. The supernatants are removed and stored at −20° C. until they are to be assayed. The levels of inflammatory mediators are determined using commercial MSD cytokine kits (Meso Scale Discovery) as per the manufacturer's instructions. Standard curves are based on 7 steps of 4× serial dilutions, with a wide dynamic range of 10000 pg/ml to 2.4 pg/ml, and the blank in triplicate. Lower limit of detection (LLOD) is calculated at the commonly used 3× the standard deviation of the blank.
Compounds were tested in accordance with the above described assay, yielding the values described below: […]

Chain of TAK1-TAB1 (O43318 other isoform, or with tags, fused parts or gaps): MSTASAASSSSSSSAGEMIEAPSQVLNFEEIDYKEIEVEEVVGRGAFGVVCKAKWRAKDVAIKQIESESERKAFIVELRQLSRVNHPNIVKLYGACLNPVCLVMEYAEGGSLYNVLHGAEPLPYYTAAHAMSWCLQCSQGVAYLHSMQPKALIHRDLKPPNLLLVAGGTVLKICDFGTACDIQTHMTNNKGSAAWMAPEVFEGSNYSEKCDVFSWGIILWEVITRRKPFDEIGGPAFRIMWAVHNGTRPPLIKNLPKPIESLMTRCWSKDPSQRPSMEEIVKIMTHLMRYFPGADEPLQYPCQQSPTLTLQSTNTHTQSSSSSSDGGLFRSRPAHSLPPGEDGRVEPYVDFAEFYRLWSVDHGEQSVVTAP

Work on `CC(C)COc1ncnc2[nH]cc(C=C(F)C(N)=O)c12` (stereo in doubt) [Example 200, (E) 2-fluoro-3-(4-isobutoxy-7H-pyrrolo[2,3-d]pyrimidin-5-yl)-acrylamide] yielded an IC50 (TAK1-TAB1) of 860 nM, an activity at 5 µM (A549 cells) of 61% and an activity at 50 µM (A549 cells) of 14%.
`CC(C)COc1ncnc2[nH]cc(C#N)c12` [Example 1, 4-isobutoxy-7H-pyrrolo[2,3-d]pyrimidine-5-carbonitrile] was tested, and the IC50 (TAK1-TAB1) was 560 nM, the activity at 5 µM (A549 cells) was 83% and the activity at 50 µM (A549 cells) was 6%.
For `CC(C)COc1ncnc2[nH]cc(C(=O)CCl)c12` [Example 23, 2-chloro-1-(4-isobutoxy-7H-pyrrolo[2,3-d]pyrimidin-5-yl)ethanone], the IC50 (TAK1-TAB1) was 280 nM, the IC50 (A549 cells) was 12000 nM and the activity at 5 µM (A549 cells) was 117%. It also gave an activity at 50 µM (A549 cells) of 0%.
`CC(C)COc1ncnc2[nH]cc(/C=C/C#N)c12` [Example 35, (E)-3-(4-isobutoxy-7H-pyrrolo[2,3-d]pyrimidin-5-yl)acrylonitrile] showed an IC50 (TAK1-TAB1) of 210 nM.
Work on `CC(C)COc1ncnc2[nH]cc(/C=C\C#N)c12` [Example 36, (Z)-3-(4-isobutoxy-7H-pyrrolo[2,3-d]pyrimidin-5-yl)acrylonitrile] yielded an IC50 (TAK1-TAB1) of 170 nM.
`CC(=O)/C=C/c1c[nH]c2ncnc(OCC(C)C)c12` [Example 37, (E)-4-(4-isobutoxy-7H-pyrrolo[2,3-d]pyrimidin-5-yl)but-3-en-2-one] showed an IC50 (TAK1-TAB1) of 100 nM.
For `CC(C)COc1ncnc2[nH]cc(/C=C/C(N)=O)c12` [Example 38, (E)-3-(4-isobutoxy-7H-pyrrolo[2,3-d]pyrimidin-5-yl)acrylamide], the IC50 (TAK1-TAB1) was 3.1 nM, the IC50 (A549 cells) was 85 nM and the activity at 5 µM (A549 cells) was 0%. For the same compound, the activity at 50 µM (A549 cells) was 0%.
`CNC(=O)/C=C/c1c[nH]c2ncnc(OCC(C)C)c12` [Example 39, (E)-3-(4-isobutoxy-7H-pyrrolo[2,3-d]pyrimidin-5-yl)-N-methylacrylamide] was tested, and the IC50 (TAK1-TAB1) was 41 nM, the IC50 (A549 cells) was 43 nM and the activity at 5 µM (A549 cells) was 0%. For the same compound, the activity at 50 µM (A549 cells) was 0%.
`N#C/C=C/c1c[nH]c2ncnc(OCc3ccccc3)c12` [Example 93, (E)-3-(4-benzyloxy-7H-pyrrolo[2,3-d]pyrimidin-5-yl)-acrylonitrile] was tested, and the IC50 (A549 cells) was 2200 nM, the activity at 5 µM (A549 cells) was 21% and the activity at 50 µM (A549 cells) was 15%.
With `NC(=O)/C=C/c1c[nH]c2ncnc(OCc3ccccc3)c12` [Example 96, (E)-3-(4-benzyloxy-7H-pyrrolo[2,3-d]pyrimidin-5-yl)-acrylamide] the IC50 (TAK1-TAB1) was 730 nM, the activity at 5 µM (A549 cells) was 78% and the activity at 50 µM (A549 cells) was 0%.
Compound `CCC(=O)/C=C/c1c[nH]c2ncnc(OCC(C)C)c12` [Example 175, (E)-1-(4-isobutoxy-7H-pyrrolo[2,3-d]pyrimidin-5-yl)pent-1-en-3-one] has an IC50 (TAK1-TAB1) of 200 nM, an IC50 (A549 cells) of 990 nM and an activity at 5 µM (A549 cells) of 3%. For the same compound, the activity at 50 µM (A549 cells) was 0%.
`COC(=O)/C=C/c1c[nH]c2ncnc(OCC(C)C)c12` [Example 176, (E)-methyl 3-(4-isobutoxy-7H-pyrrolo[2,3-d]pyrimidin-5-yl)acrylate] was tested, and the IC50 (TAK1-TAB1) was 200 nM, the activity at 5 µM (A549 cells) was 1% and the activity at 50 µM (A549 cells) was 0%.
For `COC(=O)/C(C)=C/c1c[nH]c2ncnc(OCC(C)C)c12` [Example 177, (E)-methyl 3-(4-isobutoxy-7H-pyrrolo[2,3-d]pyrimidin-5-yl)-2-methylacrylate], the IC50 (A549 cells) was 620 nM, the activity at 5 µM (A549 cells) was 0% and the activity at 50 µM (A549 cells) was 0%.
`CC(C)COc1ncnc2[nH]cc(/C=C/C(=O)O)c12` [Example 178, (E)-3-(4-isobutoxy-7H-pyrrolo[2,3-d]pyrimidin-5-yl)acrylic acid] showed an IC50 (TAK1-TAB1) of 340 nM, an activity at 5 µM (A549 cells) of 68% and an activity at 50 µM (A549 cells) of 1%.
`CCNC(=O)/C=C/c1c[nH]c2ncnc(OCC(C)C)c12` [Example 179, (E)-N-ethyl-3-(4-isobutoxy-7H-pyrrolo[2,3-d]pyrimidin-5-yl)acrylamide] gave an IC50 (TAK1-TAB1) of 340 nM, an IC50 (A549 cells) of 87 nM and an activity at 5 µM (A549 cells) of 0%. It also gave an activity at 50 µM (A549 cells) of 0%.
`CC(C)COc1ncnc2[nH]cc(/C=C/C(=O)NCC3CC3)c12` [Example 180, (E)-N-(cyclopropylmethyl)-3-(4-isobutoxy-7H-pyrrolo[2,3-d]pyrimidin-5-yl)acrylamide] gave an IC50 (TAK1-TAB1) of 380 nM, an IC50 (A549 cells) of 630 nM and an activity at 5 µM (A549 cells) of 2%. The activity at 50 µM (A549 cells) was 0%.
`CC(C)COc1ncnc2[nH]cc(/C=C/C(=O)NC3CC3)c12` [Example 181, (E)-N-cyclopropyl-3-(4-isobutoxy-7H-pyrrolo[2,3-d]pyrimidin-5-yl)acrylamide] showed an IC50 (TAK1-TAB1) of 180 nM, an IC50 (A549 cells) of 180 nM and an activity at 5 µM (A549 cells) of 1%. It also gave an activity at 50 µM (A549 cells) of 0%.
For `CC(C)COc1ncnc2[nH]cc(/C=C/C(=O)NC[C@H](C)O)c12` [Example 182, (S,E)-N-(2-hydroxypropyl)-3-(4-isobutoxy-7H-pyrrolo[2,3-d]pyrimidin-5-yl)acrylamide], the IC50 (TAK1-TAB1) was 1600 nM, the IC50 (A549 cells) was 3400 nM and the activity at 5 µM (A549 cells) was 36%. For the same compound, the activity at 50 µM (A549 cells) was 1%.
Compound `CC(C)COc1ncnc2[nH]cc(/C=C/C(=O)NC[C@@H](C)O)c12` [Example 183, (R,E)-N-(2-hydroxypropyl)-3-(4-isobutoxy-7H-pyrrolo[2,3-d]pyrimidin-5-yl)acrylamide] has an IC50 (TAK1-TAB1) of 2500 nM, an IC50 (A549 cells) of 12000 nM and an activity at 5 µM (A549 cells) of 78%. The activity at 50 µM (A549 cells) was 1%.
Compound `CC(C)COc1ncnc2[nH]cc(/C=C/C(=O)N(C)C)c12` [Example 184, (E)-3-(4-isobutoxy-7H-pyrrolo[2,3-d]pyrimidin-5-yl)-N,N-dimethylacrylamide] has an IC50 (TAK1-TAB1) of 97 nM, an IC50 (A549 cells) of 190 nM and an activity at 5 µM (A549 cells) of 1%. It also gave an activity at 50 µM (A549 cells) of 0%.
For `CC(C)COc1ncnc2[nH]cc(C#CC(N)=O)c12` [Example 186, 3-(4-isobutoxy-7H-pyrrolo[2,3-d]pyrimidin-5-yl)propiolamide], the IC50 (A549 cells) was 850 nM, the activity at 5 µM (A549 cells) was 1% and the activity at 50 µM (A549 cells) was 0%.
Compound `CCC(C)Oc1ncnc2[nH]cc(/C=C/C(N)=O)c12` (stereo not drawn) [Example 187, (E)-3-(4-(sec-butoxy)-7H-pyrrolo[2,3-d]pyrimidin-5-yl)acrylamide] has an IC50 (TAK1-TAB1) of 4.3 nM, an IC50 (A549 cells) of 190 nM and an activity at 5 µM (A549 cells) of 0%. It also gave an activity at 50 µM (A549 cells) of 0%.
For `CC(C)Oc1ncnc2[nH]cc(/C=C/C(N)=O)c12` [Example 188, (E)-3-(4-isopropoxy-7H-pyrrolo[2,3-d]pyrimidin-5-yl)acrylamide], the IC50 (TAK1-TAB1) was 4.4 nM, the IC50 (A549 cells) was 170 nM and the activity at 5 µM (A549 cells) was 0%. For the same compound, the activity at 50 µM (A549 cells) was 0%.
Compound `CCCOc1ncnc2[nH]cc(/C=C/C(N)=O)c12` [Example 189, (E)-3-(4-propoxy-7H-pyrrolo[2,3-d]pyrimidin-5-yl)acrylamide] has an IC50 (TAK1-TAB1) of 19 nM, an IC50 (A549 cells) of 180 nM and an activity at 5 µM (A549 cells) of 0%. For the same compound, the activity at 50 µM (A549 cells) was 0%.
`NC(=O)/C=C/c1c[nH]c2ncnc(Oc3ccccc3)c12` [Example 190, (E)-3-(4-phenoxy-7H-pyrrolo[2,3-d]pyrimidin-5-yl)acrylamide] showed an IC50 (TAK1-TAB1) of 170 nM, an IC50 (A549 cells) of 1000 nM and an activity at 5 µM (A549 cells) of 15%. For the same compound, the activity at 50 µM (A549 cells) was 0%.
`NC(=O)/C=C/c1c[nH]c2ncnc(OCC(F)(F)F)c12` [Example 191, (E)-3-(4-(2,2,2-trifluoroethoxy)-7H-pyrrolo[2,3-d]pyrimidin-5-yl)acrylamide] gave an IC50 (TAK1-TAB1) of 33 nM, an IC50 (A549 cells) of 150 nM and an activity at 5 µM (A549 cells) of 0%. For the same compound, the activity at 50 µM (A549 cells) was 0%.
Compound `NC(=O)/C=C/c1c[nH]c2ncnc(OCc3cccc(F)c3)c12` [Example 194, (E)-3-(4-((3-fluorobenzyl)oxy)-7H-pyrrolo[2,3-d]pyrimidin-5-yl)acrylamide] has an IC50 (A549 cells) of 43 nM, an activity at 5 µM (A549 cells) of 1% and an activity at 50 µM (A549 cells) of 1%.

From patent US9505765B2, “4-alkoxy/aralkoxy-5-substituted-pyrrolopyrimidine compounds as TAK1 inhibitors in disease treatment” (Confluence Life Sciences Inc., priority 2012, dated 2016)
